This is an account of results in patent US5624906A, “Oral hygiene compositions comprising heteroatom containing alkyl aldonamide compounds” (Lever Brothers Company, Division of Conopco, Inc., priority 1994, dated 1997).

Read-outs that look alike come from different tables or passages of the source. A value given as a limit tells only on which side of the number the result lay.

Series [1] is described as follows: Ross-Miles foam height (Examples 81-84). It is filed as physicochemical. The note with it: 0.1% aldonamide, 40° C. (or 5-10° C. above Krafft point), 0 ppm hardness; for Foam Height Final: after 10 minutes. How it is done:
In the Ross-Miles method, 200 mL of a surfactant solution contained in a pipette of specified dimensions with a 2.9-mm-i.d. orifice is allowed to fall 90 cm onto 50 mL of the same solution contained in a cylindrical vessel maintained at a given temperature by means of a water jacket. The height of the foam produced in the cylindrical vessel is read immediately after all the solution has run out of the pipette and then again after a given amount of time.
Using this method, the foam production (initial foam height in mm) and foam stability (final foam height after 10 minutes in mm) were measured at 0.1% aldonamide concentration, 40° C. and 0 ppm (parts per million) hardness.

A further series can be described thus: Krafft point. It is filed as physicochemical. The conditions noted are these: for Krafft Point (0.1%): 0.1% in water; for Krafft Point (1.0%): 1.0% in water. The procedure:
The temperature at and above which surfactants begin to form micelles instead of precipitates is referred to as the Krafft point (Tk) and at this temperature the solubility of a surfactant becomes equal to its CMC (numerical value at which micelles are formed).
The Krafft point was measured by preparing 650 ml of a 0.1% or 1.0% dispersion of aldonamide in water by weight. If the surfactant was soluble at room temperature, the solution was slowly cooled to 0° C. […] (less than zero). If it precipitated out of solution, the temperature at which precipitation occurs was taken as the Krafft point.
If the surfactant was insoluble at room temperature, the dispersion was slowly heated until the solution became homogeneous. It was then slowly cooled until precipitation occurred. The temperature at which the surfactant precipitates out of solution upon cooling was taken as the Krafft point.

A short description of series [2]: Clarity of prototype surfactant compositions (Example 87). It is filed as physicochemical. The note with it: room temperature; for Appearance: 6 months. How it is done:
The prototype shampoo composition is as follows:
(§1) The above formulations were prepared by admixing the above ingredients in listed order and heating the mixture to about 80° C. with rapid stirring. The mixture was then cooled to about 40° C., placed in a clear jar and stored at room temperature for 6 months.

A short description of series [3]: Viscosity of sodium lauryl sulfate compositions (Example 88). It is filed as physicochemical. The conditions noted are these: for Viscosity: 22° C. How it is done:
The prototype surfactant composition is as follows:
as §1
It is well known that the viscosity of a liquid composition comprising of anionic surfactant can be modified by the addition of inorganic salts, such as sodium chloride. However, in the absence of an organic modifier, high levels of salt may be necessary to achieve the required viscosity which may lead to problems of storage at cold temperature or even salting out certain ingredients. In practice, however, the viscosity of a liquid composition is modified by the simultaneous addition of thickener and small amounts of inorganic salt (viscosity cobuilder). The combined effect is greater than either one alone. The viscosity of the above prototype surfactant composition comprising various amounts of heteroatom containing alkyl aldonamide compound is as follows: […]

Series [4] is described as follows: Effectiveness in reducing surface tension (surface pressure at CMC). The conditions noted are these: 60 °C, estimated by extrapolating a linear line. It is filed as physicochemical. The text has this: As mentioned before, surface tension reduction depends on the replacement of water molecules at the interface by surfactant molecules, therefore the effectiveness of a surfactant in reducing interfacial surface tension should reflect the saturated concentration of surfactant at the interface relative to that in bulk liquid phase. During this process the surface tension of water steadily decreases as bulk phase surfactant concentration increases. This will continue until the concentration reaches the critical micelle concentration (CMC), above which the surface tension remains nearly unchanged and the interface is saturated with surfactant. The surface tension at the CMC is therefore very close to the minimum interfacial tension or maximum surface pressure that the system can achieve. The surface pressure at this point, IIcmc, is a suitable measure of the effectiveness of a surfactant in reducing surface tension and is given as:
IIcmc =20+2.3nRT(Γmax) log[CMC/C20 ]
n=1 which represents the number of ions whose surface concentration changes with the change in liquid phase surfactant concentration.
CMC/C20 =is the ratio of the critical micelie concentration to the bulk phase surfactant concentration necessary to reduce the surface tension of water by 20 dyn/cm.

The nature of series [5]: Effectiveness of adsorption (surface excess concentration, Gibbs equation). It is filed as physicochemical. The note with it: 60 °C, estimated by extrapolating a linear line. From the text:
The surface excess concentration at surface saturation (Γmax) is defined as a measure of the effectiveness of surfactant adsorption at the water/air interface and represents the maximum value to which adsorption can be obtained. Effectiveness of adsorption is related to the interfacial area occupied by the surfactant molecule. The smaller the effective cross-sectional area of a surfactant at the interface, the greater its effectiveness of adsorption. The effectiveness of adsorption is an important factor in determining surfactant properties such as detergency, foaming, wetting or emulsification. While not wishing to be bound by theory, it is believed that surfactants that absorb effectively at the interface tend have tightly packed coherent interfacial films and often provide better surfactant benefits than those with loosely packed noncoherent films. The effectiveness of adsorption of C8 /C10 oxypropyl D-gluconamide was determined using the Gibbs equation given as: […]
(∂γ/∂log[Conc])T

The conditions of series [6]: cited from earlier work.
For series [7] the following is noted: cited from earlier work. This is another data set of the same source.
The nature of series [8]: Foam stability and enhancement of sodium/ammonium lauryl sulfate, Ross-Miles (Example 86). It is filed as physicochemical. The conditions noted are these: 0 ppm hardness, 45° C., 4.0% foam stabilizer in sodium/ammonium lauryl sulfate composition. The procedure: The results were compared to identical compositions comprising petrochemically derived foam stabilizing agents, in particular, alkanolamides and alcohol ethoxylates. The prototype surfactant composition is as follows:
The compositions were prepared by admixing the ingredients in listed order with rapid stirring at 45--50° C. Foam stability and enhancement were measured at 0.1% based on sodium and ammonium lauryl sulfate (0.16% total solids) at 45° C. and 0 or 120 parts per million (ppm) hardness calcium:magnesium ion 2:1.

Setting [9] is: 5.0% in […] sodium lauryl sulfate.
Setting [10] is: 3.0% in […] sodium lauryl sulfate.

As for `CCCCCCCCCNC(=O)[C@H](O)[C@@H](O)[C@H](O)[C@H](O)CO` [C9 D-Gluconamide], the “Foam Height Initial” value in series [1] was 0 mm. In addition, in series [1], the “Foam Height Final” value is on record as 0 mm. The “Krafft Point (0.1%)” value in the series “Krafft point” came out at 53 °C. For the same molecule, the Appearance result in series [2] (4.0% in […] sodium lauryl sulfate) and in [2] (setting [9]) was “Precipitate” throughout. Further, the “Appearance (Time): time of precipitate” value in series [2] (4.0%) and in series [2] (5.0%) was 2 weeks throughout.
With `CCCCCCCCCCNC(=O)[C@H](O)[C@@H](O)[C@H](O)[C@H](O)CO` [C10 D-Gluconamide], in series [1], the “Foam Height Final” value amounted to 6 mm. In addition, the “Krafft Point (0.1%)” value in the series “Krafft point” was 75 °C. The Appearance entry in [2] (setting [10]) and in series [2] (setting [9]) was “Precipitate” throughout.
Consider `CCCCCCCCCCCCOCCCNC(=O)[C@H](O)[C@@H](O)[C@H](O)[C@H](O)CO` [C12 Oxypropyl D-Gluconamide], for which, in series [1], the “Foam Height Initial” value came to 200 mm and the “Foam Height Final” value is listed as 110 mm. Also, the “Krafft Point (0.1%)” value in the series “Krafft point” came out at 61 °C. In addition, in [3] (3.0% thickener), the “Viscosity Increase” value came out at 120 x and the Viscosity stood at 1800 Centipoise. In series [3] (5.0% thickener), the “Viscosity Increase” value is 1373 x and the Viscosity turned out to be 20600 Centipoise. In addition, in series [2] (setting [10]), the Appearance result is listed as “Clear”. The Appearance result in [2] (setting [9]) is listed as “Precipitate”. Moreover, the “Appearance (Time): time of precipitate” value in series [2] (5.0%) is reported as 5 months.
Turning to `CCCCCCCCCCCCOCCCNC(=O)[C@H](O)[C@@H](O)[C@H](O[C@@H]1O[C@H](CO)[C@H](O)[C@H](O)[C@H]1O)[C@H](O)CO` [C12 Oxypropyl D-Lactobionamide, dodecyloxypropyl D-lactobionamide], the “Krafft Point (1.0%)” value in the series “Krafft point” was less than 0 °C. The figures for the “Viscosity Increase” value in [3] (3.0% thickener) and in [3] (5.0% thickener) were 23 x and 97 x, respectively. For the same molecule, the Viscosity in series [3] (3.0% thickener) was determined as 340 Centipoise; in series [3] (5.0% thickener), 1455 Centipoise.
Take `CCCCCCCCCCCCOCCOCCOCCOCCOCCOCCOCCO` [Dodecylhepta(oxyethylene) Ether]: the “Πcmc (surface pressure)” value in series [4] is listed as 36.8 dyn/cm; in series [7] (25 °C), 38.3 dyn/cm; in [7] (40 °C) it was 38.5 dyn/cm. The “Γmax (surface excess concentration at surface saturation)” value (“Γmax” below) in [5] was 2.71 × 10^-10 mole/cm^2; in series [6] (25 °C) it was 2.90 × 10^-10 mole/cm^2; in series [6] (40 °C), 2.77 × 10^-10 mole/cm^2.
Consider `CCCCCCCCCCCCOCCOCCOCCOCCOCCO` [Dodecylpenta(oxyethylene) Ether], for which the “Πcmc (surface pressure)” value was 40.7 dyn/cm in series [4], 41.5 dyn/cm in series [7] (25 °C) and 41.2 dyn/cm in series [7] (40 °C). The “Γmax” value in series [5] is listed as 3.16 × 10^-10 mole/cm^2; in [6] (25 °C), 3.31 × 10^-10 mole/cm^2; in series [6] (40 °C), 3.28 × 10^-10 mole/cm^2. In addition, the CMC/C20 in [7] (25 °C) was 15.0.
Consider `CCCCCCCCCCCCOCCOCCOCCOCCO` [Dodecyltetra(oxyethylene) Ether], for which the “Πcmc (surface pressure)” value is recorded as 40.7 dyn/cm in series [4], 43.4 dyn/cm in series [7] (25 °C) and 42.0 dyn/cm in [7] (40 °C). The “Γmax” value in series [5] was 3.01 × 10^-10 mole/cm^2; in series [6] (25 °C), 3.63 × 10^-10 mole/cm^2; in series [6] (40 °C), 3.41 × 10^-10 mole/cm^2.
For `CCCCCCCCCCCCOCCOCCOCCO` [Dodecyltri(oxyethylene) Ether], the “Πcmc (surface pressure)” value in series [4] was 41.4 dyn/cm; in [7] (25 °C), 44.1 dyn/cm; in series [7] (40 °C), 43.1 dyn/cm. The results for the “Γmax” value in series [5], in series [6] (25 °C) and in [6] (40 °C) were 3.83 × 10^-10 mole/cm^2, 3.98 × 10^-10 mole/cm^2 and 3.90 × 10^-10 mole/cm^2, respectively.
Consider `CCCCCCCCCCCC(=O)N(CCO)CCO` [Lauramide DEA, lauramide diethanolamine], for which the “Initial FH” value in series [8] is recorded as 190 mm.
In the case of coco D-gluconamide, the Appearance result in series [2] (setting [10]) and in [2] (setting [9]) was “Precipitate” each time. Besides, the “Appearance (Time): time of precipitate” value in [2] (3.0%) was 1 days; in [2] (5.0%) it was 0.083 days.
Consider cocoaminopropyl D-gluconamide, for which, in series [1], the “Foam Height Initial” value is reported as 186 mm and the “Foam Height Final” value came to 182 mm. For the same molecule, the “Krafft Point (0.1%)” value in “Krafft point” was determined as 18 °C. In addition, the Appearance entry in series [2] (setting [10]) is on record as “Clear”. The Appearance result in series [2] (setting [9]) was “Clear”.
For cocoaminopropyl D-lactobionamide, in [1], the “Foam Height Initial” value amounted to 171 mm and the “Foam Height Final” value is on record as 168 mm. In addition, in the series “Krafft point”, the “Krafft Point (1.0%)” value was less than 0 °C.
As to “dodecyl to pentadecyloxypropyl D-gluconamide [C12 -C15 Oxypropyl D-Gluconamide]”, in series [1], the “Foam Height Initial” value was 200 mm and the “Foam Height Final” value came to 110 mm. Besides, the “Krafft Point (0.1%)” value in “Krafft point” stood at 58 °C.
With “dodecyl to pentadecyloxypropyl D-lactobionamide [C12 -C15 Oxypropyl D-Lactobionamide]”, in series [1], the “Foam Height Initial” value was 166 mm and the “Foam Height Final” value was found to be 155 mm. In addition, in the series “Krafft point”, the “Krafft Point (1.0%)” value is less than 0 °C.
Turning to “dodecyl to pentadecyloxypropylaminopropyl D-gluconamide”, the “Foam Height Initial” value in series [1] was determined as 180 mm. In addition, the “Krafft Point (0.1%)” value in “Krafft point” is less than 0 °C.
Consider “dodecyl to pentadecyloxypropylaminopropyl D-lactobionamide”, for which, in series [1], the “Foam Height Initial” value was 173 mm and the “Foam Height Final” value stood at 169 mm. Also, the “Krafft Point (1.0%)” value in the series “Krafft point” is less than 0 °C.
With “octyl/decyloxypropyl D-lactobionamide [C8 /C10 Oxypropyl D-Lactobionamide]”, in [1], the “Foam Height Initial” value worked out at 168 mm and the “Foam Height Final” value is given as 158 mm. Moreover, the “Krafft Point (1.0%)” value in the series “Krafft point” is less than 0 °C. Also, in series [2] (setting [10]), the Appearance entry is listed as “Clear”. The Appearance result in series [2] (setting [9]) is on record as “Clear”.
Regarding “octyl/decyloxypropyl D-ribonamide [C8 /C10 Oxypropyl D-Ribonamide]”, in series [1], the “Foam Height Initial” value is 217 mm and the “Foam Height Final” value came to 200 mm. Besides, the “Krafft Point (0.1%)” value in “Krafft point” worked out at 10 °C.
